PubChem BioAssay (NCI)
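These data come from cells grown in 96-well plates and exposed to compound for 48 hours at five concentrations. At the GI50, growth is halved. TGI: total growth inhibition.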

Experiments:
Experiment in all cases: NCI anticancer screen, dose series, 48 h
[1] = system: 786-0 renal
[2] = system: A498 renal
[3] = system: A549 NSCLC
[4] = system: ACHN renal
[5] = system: BT-549 breast
[6] = system: CCRF-CEM leukemia
[7] = system: COLO 205 colon
[8] = system: DU-145 prostate
[9] = system: EKVX NSCLC
[10] = system: HCC-2998 colon
[11] = system: HCT-116 colon
[12] = system: HCT-15 colon
[13] = system: HL-60(TB) leukemia
[14] = system: HOP-62 NSCLC
[15] = system: HOP-92 NSCLC
[16] = system: HS 578T breast
[17] = system: HT29 colon
[18] = system: IGROV1 ovarian
[19] = system: K-562 leukemia
[20] = system: KM12 colon
[21] = system: LOX IMVI melanoma
[22] = system: M14 melanoma
[23] = system: MALME-3M melanoma
[24] = system: MCF7 breast
[25] = system: MDA-MB-231 breast
[26] = system: MDA-MB-435
[27] = system: MOLT-4 leukemia
[28] = system: NCI-H226 lung
[29] = system: NCI-H23 lung
[30] = system: NCI-H460 lung
[31] = system: NCI-H522 lung
[32] = system: NCI/ADR-RES ovarian
[33] = system: OVCAR-3 ovarian
[34] = system: OVCAR-4 ovarian
[35] = system: OVCAR-5 ovarian
[36] = system: OVCAR-8 ovarian
[37] = system: PC-3 prostate
[38] = system: RPMI-8226 leukemia
[39] = system: RXF 393 renal
[40] = system: SF-268 CNS
[41] = system: SF-295 CNS
[42] = system: SF-539 CNS
[43] = system: SK-MEL-2 melanoma
[44] = system: SK-MEL-28 melanoma
[45] = system: SK-MEL-5 melanoma
[46] = system: SK-OV-3 ovarian
[47] = system: SN12C renal
[48] = system: SNB-19 CNS
[49] = system: SNB-75 CNS
[50] = system: SR leukemia
[51] = system: SW-620 colon
[52] = system: T-47D breast
[53] = system: TK-10 renal
[54] = system: U251 CNS
[55] = system: UACC-257 melanoma
[56] = system: UACC-62 melanoma
[57] = system: UO-31 renal
[58] = system: CAKI-1 renal

C=C1C(=O)O[C@H]2[C@H]1CC/C(COC(=O)c1cccnc1N)=C\CC[C@@]1(C)O[C@@H]21
GI50 [1]: 1.7 µM
TGI [1]: 4.24 µM
GI50 [2]: 2.56 µM
TGI [2]: 7.27 µM
GI50 [3]: 3.77 µM
TGI [3]: 16.5 µM
GI50 [4]: 1.03 µM
TGI [4]: 10.3 µM
GI50 [5]: 2.17 µM
TGI [5]: 5.6 µM
GI50 [6]: 0.345 µM
TGI [6]: 2.47 µM
GI50 [7]: 1.77 µM
TGI [7]: 3.68 µM
GI50 [8]: 2.45 µM
TGI [8]: 12.7 µM
GI50 [9]: 3.21 µM
TGI [9]: 25.1 µM
GI50 [10]: 4.43 µM
TGI [10]: 16.2 µM
GI50 [11]: 0.36 µM
TGI [11]: 1.26 µM
GI50 [12]: 2.34 µM
TGI [12]: 9.79 µM
GI50 [13]: 0.262 µM
TGI [13]: 0.749 µM
GI50 [14]: 4.89 µM
TGI [14]: 18.6 µM
GI50 [15]: 0.282 µM
TGI [15]: 2.63 µM
GI50 [16]: 4.15 µM
TGI [16]: 65.1 µM
GI50 [17]: 0.721 µM
TGI [17]: 11 µM
GI50 [18]: 2.56 µM
TGI [18]: 11.6 µM
GI50 [19]: 0.396 µM
TGI [19]: 14.1 µM
GI50 [20]: 3.19 µM
TGI [20]: 11.8 µM
GI50 [21]: 3.18 µM
TGI [21]: 14 µM
GI50 [22]: 1.12 µM
TGI [22]: 3.59 µM
GI50 [23]: 1.91 µM
TGI [23]: 6.65 µM
GI50 [24]: 0.553 µM
TGI [24]: 14.6 µM
GI50 [25]: 2.32 µM
TGI [25]: 6.9 µM
GI50 [26]: 2.58 µM
TGI [26]: 12 µM
GI50 [27]: 0.65 µM
TGI [27]: 6.46 µM
GI50 [28]: 10.1 µM
TGI [28]: 24.4 µM
GI50 [29]: 5.56 µM
TGI [29]: 24.5 µM
GI50 [30]: 3.09 µM
TGI [30]: 10.8 µM
GI50 [31]: 0.379 µM
TGI [31]: 2 µM
GI50 [32]: 4.56 µM
TGI [32]: 39.9 µM
GI50 [33]: 1.04 µM
TGI [33]: 2.88 µM
GI50 [34]: 2.08 µM
TGI [34]: 19.4 µM
GI50 [35]: 6.95 µM
TGI [35]: 21.7 µM
GI50 [36]: 4.2 µM
TGI [36]: 16.3 µM
GI50 [37]: 3.72 µM
TGI [37]: 19.2 µM
GI50 [38]: 0.365 µM
TGI [38]: 2.54 µM
GI50 [39]: 1.53 µM
TGI [39]: 3.78 µM
GI50 [40]: 3.54 µM
TGI [40]: 16.5 µM
GI50 [41]: 4.15 µM
TGI [41]: 16 µM
GI50 [42]: 2.56 µM
TGI [42]: 8.74 µM
GI50 [43]: 3.16 µM
TGI [43]: 12.5 µM
GI50 [44]: 2.01 µM
TGI [44]: 8.85 µM
GI50 [45]: 2.9 µM
TGI [45]: 12.5 µM
GI50 [46]: 12.2 µM
TGI [46]: 73 µM
GI50 [47]: 2.01 µM
TGI [47]: 10.9 µM
GI50 [48]: 8.65 µM
TGI [48]: 28.5 µM
GI50 [49]: 3.16 µM
TGI [49]: 17.8 µM
GI50 [50]: 0.539 µM
TGI [50]: 10.4 µM
GI50 [51]: 0.583 µM
TGI [51]: 3.82 µM
GI50 [52]: 1.85 µM
TGI [52]: 8.01 µM
GI50 [53]: 2.59 µM
TGI [53]: 10.4 µM
GI50 [54]: 3.77 µM
TGI [54]: 14.5 µM
GI50 [55]: 2.32 µM
TGI [55]: 12.6 µM
GI50 [56]: 3.02 µM
TGI [56]: 13.3 µM
GI50 [57]: 2.17 µM
TGI [57]: 10.2 µM

NS(=O)(=O)c1nnc(NS(=O)(=O)c2ccccc2[N+](=O)[O-])s1
TGI [1]: > 100 µM
TGI [2]: > 100 µM
TGI [3]: > 100 µM
TGI [4]: > 100 µM
TGI [5]: > 100 µM
TGI [58]: > 100 µM
TGI [7]: > 100 µM
TGI [8]: > 100 µM
TGI [9]: > 100 µM
TGI [10]: > 100 µM
TGI [11]: > 100 µM
TGI [12]: > 100 µM
TGI [13]: > 100 µM
TGI [14]: > 100 µM
TGI [15]: > 100 µM
TGI [16]: > 100 µM
TGI [17]: > 100 µM
TGI [18]: > 100 µM
TGI [19]: > 100 µM
TGI [20]: > 100 µM
TGI [22]: > 100 µM
TGI [23]: > 100 µM
TGI [24]: > 100 µM
TGI [25]: > 100 µM
TGI [26]: > 100 µM
TGI [27]: > 100 µM
TGI [28]: > 100 µM
TGI [29]: > 100 µM
TGI [30]: > 100 µM
TGI [31]: > 100 µM
TGI [32]: > 100 µM
TGI [33]: > 100 µM
TGI [34]: > 100 µM
TGI [35]: > 100 µM
TGI [37]: > 100 µM
TGI [38]: > 100 µM
TGI [39]: > 100 µM
TGI [40]: > 100 µM
TGI [41]: > 100 µM
TGI [42]: > 100 µM
TGI [43]: > 100 µM
TGI [44]: > 100 µM
TGI [45]: > 100 µM
TGI [46]: > 100 µM
TGI [48]: > 100 µM
TGI [49]: > 100 µM
TGI [50]: > 100 µM
TGI [51]: > 100 µM
TGI [52]: > 100 µM
TGI [53]: > 100 µM
TGI [54]: > 100 µM
TGI [56]: > 100 µM
TGI [57]: > 100 µM
